Results published in patent US8673983B2, “Melanins synthesized chemically or via enzyme catalysis” (priority 2007, dated 2014).
Values after ≈ are worked out from the molar mass of the structure shown.

How the values were obtained:
[1] = test system: PPO enzyme (E.C. 1.10.3.1) from banana (Musa sapientum) skin; assay: test of potential melanogenic substrates of banana PPO (pigment formation vs blank); type: biochemical; conditions: pH 7
HSV-2 = assay: microbe, parasite or virus in culture; type: cell-based; conditions: Human alphaherpesvirus 2, HFF, read-out: ACV EC50
in vitro = conditions: human
HSV-1 = assay: microbe, parasite or virus in culture; type: cell-based; conditions: Human alphaherpesvirus 1, HFF, read-out: ACV EC50
physchem = conditions: 30 °C, pH 7, aqueous buffer, thermodynamic from solid
[2] = test system: cultured human foreskin fibroblasts

| Molecule | PPO Substrate [1] | solubility (physchem) | also measured |
| --- | --- | --- | --- |
| 5,6,7 trihydroxyflavanone [Baicalein] | Y |  |  |
| Nc1nc2c(ncn2COCCO)c(=O)[nH]1 [ACV, Acyclovir] |  |  | EC50 (HSV-2): 1.4 µg/mL (≈ 0.00622 mM); CC50 (in vitro): > 100 µg/mL; EC50 (HSV-1): 1.1 µg/mL (≈ 0.00488 mM) |
| O=C1c2ccccc2C(=O)c2c1ccc(O)c2O [Alizarin, 1,2-dihydroxy-anthraquinone] | Y | < 2000 µg/mL |  |
| O=C(O)C=Cc1ccc(O)c(O)c1 [Caffeic acid, 3,4-dihydroxycinnamic acid] |  | > 2000 µg/mL |  |
| O=C(O)Cc1ccc(O)c(O)c1 [DOPAC, 3,4-dihydroxyphenylacetic acid] |  | > 2000 µg/mL |  |
| O=c1ccc2cc(O)c(O)cc2o1 [Esculetin, 6,7 Dihydroxvcoumarin] | Y | < 2000 µg/mL |  |
| Nc1nc(O)c2ncn(COC(CO)CO)c2n1 [GCV, ganciclovir] |  |  | CC50 (in vitro): > 100 µg/mL |
| O=C(O)c1cc(O)c(O)c(O)c1 [Gallic acid, 3,4,5-trihydroxybenzoic acid] |  | < 2000 µg/mL |  |
| O=C(O)c1ccc(O)c(O)c1 [Protocatechuric acid, 3,4-dihydroxybenzoic acid] | Y | > 2000 µg/mL |  |
| Oc1cccc(O)c1O [Pyrogallol, 1,2,3-trihydroxvbenzene] |  | < 2000 µg/mL |  |
| O=c1c(O)c(-c2ccc(O)c(O)c2)oc2cc(O)cc(O)c12 [Quercetin, 2-(3,4-dihydroxyphenyl)-3,5,7-trihydroxy-4H-1-benzopyran-4-one] |  | < 2000 µg/mL |  |
| NCCc1c[nH]c2ccc(O)cc12 [Serotonin, 5-hydroxytryptamine] | Y |  |  |
| Nordihydroguaiuretic acid |  |  | Toxicity [2]: N |
